Source: patent US20240336573A1, “COMPOUND FOR THE TREATMENT AND PROPHYLAXIS OF INFECTIOUS DISEASES” (Eberhard Karls Universität Tübingen Medizinische Fakultät, priority 2021, published 2024)

Experiments:
E. coli JW2496-3 = test: Sensitizer MIC assay (vancomycin); format: cell-based; details: 100 μM compound, more susceptible strain
Protocol: (§1) To test for the sensitizer properties of the compounds, the inventors then performed a sensitizer MIC assay. To this end, E. coli BW25113, E. coli JW2496-3, and E. coli ATCC 25922 inocula were prepared as described above. Each well of a 96-well plate was prefilled with a fixed compound concentration of 100 μM and a dilution series of Vancomycin ranging from […]. A sensitizing effect was defined as reduction of the MIC value of Vancomycin of the respective test strain.

E. coli ATCC 25922 = test: Sensitizer MIC assay (vancomycin); format: cell-based; details: vancomycin; 100 μM compound; type strain
Protocol: as §1

E. coli BW25113 = test: Sensitizer MIC assay (vancomycin); format: cell-based; details: 100 μM compound, wildtype strain
Protocol: as §1

[1] = system: E. coli BW25113, E. coli JW2496-3, E. coli ATCC 25922; test: Minimal inhibitory concentration assay (bactericidal/bacteriostatic assessment); format: cell-based; details: dilution series 100-1.7 μM
Text: The intended effect of a SurA inhibitor should be the induction of a disturbance of the outer membrane composition resulting in an increased susceptibility to antibiotic treatment. Of note, Vancomycin is typically not used to treat infections with Gram-negative bacteria, because it is excluded by the OM and not efficient at concentrations that could be achieved in patients. However, at appropriate dosing in vitro it can be used to detect outer membrane defects. For determining a potential sensitizing effect of Vancomycin treatment, the inventors first tested whether the compounds at hand were bactericidal per se. Therefore, the inventors performed a minimal inhibitory concentration (MIC) assay. To this end, 5 ml overnight cultures of E. coli BW25113 (Keio-Collection reference strain), E. coli JW2496-3 (Keio-Collection single gene knockout for bamB, which suffers from decreased outer membrane integrity) and E. coli ATCC 25922 (a reference strain recommended for antibiotic susceptibility testing) were grown in Mueller Hinton Broth, Cation adjusted (MHB-II). The next day, the OD was adjusted to obtain 1*10^8 CFU/ml using fresh MHB-II. Next, this bacterial solution was diluted 1:100 into 20 ml fresh MHB-II. 50 μl of this bacteria solution were then transferred into each well of a 96-well plate prefilled with 50 μl MHB-II supplemented with the desired compounds. The test plates for the bactericidal assessment contained dilution series of the compounds from 100-1.7 μM. Plates were sealed with a gas permeable membrane and incubated o/n at 37° C. in a humid chamber without shaking. After o/n incubation, bacterial growth was quantified by measuring the optical density at 600 nm wavelength in a multiplate reader. Compounds showing no growth inhibition at 100 μM were considered non-bactericidal. Of note, the bactericidal effect of Vancomycin was assessed similarly for each test strain using Vancomycin concentrations ranging from […]. This was done to identify a Vancomycin concentration at which the strains just managed to survive.

SurA = SurA (Escherichia coli, UniProt P0ABZ6); test: Luciferase-based SurA activity assay (primary assay, in-house); format: biochemical, E. coli; details: n/d: no signal detected; for Primary Assay ICmax: QHL-10 derivatives, dose response up to 125 μM; for Primary Assay Amplitude: amplitude of signal
SurA, sequence (P0ABZ6 21-428): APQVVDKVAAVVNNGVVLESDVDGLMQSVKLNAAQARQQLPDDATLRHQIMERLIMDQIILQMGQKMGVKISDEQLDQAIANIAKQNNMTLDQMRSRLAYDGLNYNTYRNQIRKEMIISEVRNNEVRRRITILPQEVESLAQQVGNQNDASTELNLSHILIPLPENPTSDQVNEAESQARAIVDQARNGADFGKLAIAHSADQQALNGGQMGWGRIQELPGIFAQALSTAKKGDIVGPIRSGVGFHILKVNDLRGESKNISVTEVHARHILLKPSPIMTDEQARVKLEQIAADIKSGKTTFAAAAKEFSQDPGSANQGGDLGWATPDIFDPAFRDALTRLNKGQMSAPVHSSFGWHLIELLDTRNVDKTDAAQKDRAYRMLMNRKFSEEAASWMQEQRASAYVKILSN
Text: The biological function of SurA is to bind and to keep outer membrane proteins that have reached the periplasm in an unfolded but folding-competent state. The inventors' assay is based on this interaction and uses firefly Luciferase (fLuc) as a non-native substrate. […] This is exploited in the assay (FIG. 3). The loss of tertiary structure of fLuc leads to the exposure of binding sites for SurA. It is known that SurA binds selectively to a special group of substrates. These substrates have in common the specific patterns of hydrophobic amino acids that are highly enriched in the beta strands of integral outer membrane proteins. These motifs are present in OMPs of all Gram-negative bacteria and in fLuc as well. Upon mild heat treatment of fLuc and its subsequent partial unfolding, fLuc is accepted as a substrate by SurA. Of note, these intermediates served as reporter substrates to determine the activity of a […] folding chaperone. […] This interaction remains stable upon temperature reduction. Next, the temperature of the assay is reduced to room temperature and luciferase activity is subsequently measured by addition of Luciferin and ATP. In conditions without SurA, fLuc will refold into its active conformation resulting in a luminescence signal.
In short, the Luciferase based SurA activity assay was performed in SurA Activity Assay Buffer (40 mM HEPES pH 7.4, 20 mM MgSO4, 0.5 g/I BSA). SurA aliquots were thawn at RT, activated by mild heat treatment and cooled down to RT for 10 min. […] Solution A containing 10 mM ATP as well as 0.3 mM Luciferin (Promega Beetle Luciferin, Potassium Salt) in water was prepared. Luciferase working solution was prepared by diluting 1 ml Luciferase working stock (100 nM) with 9 ml assay buffer. 33 μl of the protein solution were added to every 2nd row of a well of a 384-well PS, white, flat bottom plate. […] Subsequently, 2 μl of compound in DMSO were added in quadruplicates (4 wells each of protein solution and buffer controls). These compound solutions could contain either various compounds or different dilutions of the same compound allowing screening inhibitor activity in a dose dependent manner. After compound addition, plates were incubated 15 min at RT. After this incubation, 5 μl of Luciferase working solution were added to each well. Next, the plates were incubated 25 min at 38° C. to partially unfold the Luciferase. Subsequently, the assay plate was cooled for 5 min at 4° C. followed by 10 min incubation at RT prior to luminescence measurement. Luminescence was measured in a TECAN infinite M200 pro plate reader for each well individually after injection of 10 μl Solution A.

Compound	Sensitizer MIC Assay (log2-fold reduction of MIC in presence of compound) JW2496-3 (E. coli JW2496-3) [log2-fold]	Sensitizer MIC Assay (log2-fold reduction of MIC in presence of compound) ATCC25922 (E. coli ATCC 25922) [log2-fold]	Sensitizer MIC Assay (log2-fold reduction of MIC in presence of compound) BW25113 (E. coli BW25113) [log2-fold]	Bacteriostatic MIC Assay Result [1]	Primary Assay ICmax (SurA) [µM]	Primary Assay Amplitude (SurA)
NC(=O)c1nc(-c2ccc(F)c(N)c2)[nH]c1NC(=O)c1ccc(-c2ccccc2)cc1 [Compound 3d, 5-([1,1′-biphenyl]-4-carboxamido)-2-(3-amino-4-fluorophenyl)-1H-imidazole-4-carboxamide]	0	0	0	non-bacteriostatic	16	high
CCOc1ccc2ccccc2c1C(=O)Nc1[nH]c(-c2ccc(F)c(N)c2)nc1C(N)=O [Compound 3g, 2-(3-amino-4-fluorophenyl)-5-(2-ethoxy-1-naphthamido)-1H-imidazole-4-carboxamide]	0	0	0	non-bacteriostatic	64	low
CCOc1ccc2ccccc2c1C(=O)Nc1[nH]c(-c2cccc(N)c2)nc1C(N)=O [Compound 3e, 2-(3-aminophenyl)-5-(2-ethoxy-1-naphthamido)-1H-imidazole-4-carboxamide]	0	0	0	non-bacteriostatic	64	low
NC(=O)c1nc(Cc2ccccc2)[nH]c1NC(=O)c1ccc(-c2ccccc2)cc1 [Compound 1e, 5-([1,1′-biphenyl]-4-carboxamido)-2-benzyl-1H-imidazole-4-carboxamide]	0	0	0	non-bacteriostatic	16	high
